Source: patent US6696476B2, “Pyranoindazoles and their use for the treatment of glaucoma” (Alcon, Inc., priority 2001, dated 2004)
Counter-ions that a name gives are not always drawn. Like-named read-outs stand apart in the source and are kept apart here.

Key:
[1] = molecular target: T1, 5-HT2A Receptor (Rattus norvegicus, UniProt P14842); test: 5-HT2 Functional Assay: [Ca2+]i Mobilization (FLIPR, A7r5 cells); format: cell-based; design: endogenous in cells; host or cells: A7r5 rat vascular smooth muscle cells; settings: for EC50: [Ca2+]i mobilization, A7r5 rat vascular smooth muscle cells; for Emax: read-out: Efficacy (Emax, %)
Description: The receptor-mediated mobilization on intracellular calcium ([Ca^2+]i) was studied using the Fluorescence Imaging Plate Reader (FLIPR) instrument. Rat vascular smooth muscle cells, A7r5, were grown in a normal media of DMEM/10% FBS and 10 μg/mL gentamycin. Confluent cell monolayers were trypsinized, pelleted, and re-suspended in normal media. Cells were seeded in a 50 μL volume at a density of 20,000 cells/well in a black wall, 96-well tissue culture plate and grown for 2 days.
On the day of the experiment, one vial of FLIPR Calcium Assay Kit dye was re-suspended in 50 mL of a FLIPR buffer consisting of Hank's Balanced Salt Solution (HBSS), 20 mM HEPES, and 2.5 mM probenecid, pH 7.4. Cells were loaded with the calcium-sensitive dye by addition of an equal volume (50 μL) to each well of the 96-well plate and incubated with dye for 1 h at 23° C.
Compounds were diluted 1:50 in 20% DMSO/20% Ethanol. For “hit” screening, compounds were further diluted 1:10 in FLIPR buffer and tested at a final concentration of 10 μM.
The compound plate and cell plate were placed in the FLIPR instrument. At the beginning of an experimental run, a signal test was performed to check the basal fluorescence signal from the dye-loaded cells and the uniformity of the signal across the plate. The basal fluorescence was adjusted between 8000-12000 counts by modifying the exposure time, the camera F-stop, or the laser power. Instrument settings for a typical assay were the following: laser power 0.3-0.6 W, camera F-stop F/2, and exposure time 0.4 sec. An aliquot (25 μL) of the test compound was added to the existing 100 μL dye-loaded cells at a dispensing speed of 50 μL/sec. Fluorescence data were collected in real-time at 1.0 sec intervals for the first 60 secs and at 6.0 sec intervals for an additional 120 secs.

[2] = molecular target: T1, 5-HT2A Receptor; test: 5-HT2 Receptor Binding Assay ([125I]DOI competition); design: species or system rat or human; settings: 5-HT2A receptor binding; [125I]DOI displacement, cerebral cortex homogenates
Description: Aliquots of post mortem rat or human cerebral cortex homogenates (400 μL) dispersed in 50 mM Tris HCl buffer (pH 7.4) are incubated with [^125I]DOI (80 pM final) in the absence or presence of methiothepin (10 μM final) to define total and non-specific binding, respectively, in a total volume of 0.5 mL. The assay mixture is incubated for 1 hour at 23° C. in polypropylene tubes and the assays terminated by rapid vacuum filtration over Whatman GF/B glass fiber filters previously soaked in 0.3% polyethyleneimine using ice-cold buffer. Test compounds (at different concentrations) are substituted for methiothepin. Filter-bound radioactivity is determined by scintillation spectrometry on a beta counter. The data are analyzed using a non-linear, iterative curve-fitting computer program [Trends Pharmacol. Sci., 16, 413 (1995)] to determine the compound affinity parameter. The concentration of the compound needed to inhibit the [^125I]DOI binding by 50% of the maximum is termed the IC50 or Ki value.

[3] = tested on: intraocular pressure; test: IOP Response in Conscious Cynomolgus Monkeys; format: in vivo
[4] = tested on: IOP; settings: monkey; attributed to α1A receptor activity; cited from earlier work
[5] = tested on: IOP; settings: rabbits; cited from earlier work
[6] = percentage of a maximum 5-HT-induced response, A7r5 cells
[7] = 3 hours after dose, dose 300 μg
[8] = 6 hours after dose, dose 300 μg

T1 sequence (P14842 whole entry): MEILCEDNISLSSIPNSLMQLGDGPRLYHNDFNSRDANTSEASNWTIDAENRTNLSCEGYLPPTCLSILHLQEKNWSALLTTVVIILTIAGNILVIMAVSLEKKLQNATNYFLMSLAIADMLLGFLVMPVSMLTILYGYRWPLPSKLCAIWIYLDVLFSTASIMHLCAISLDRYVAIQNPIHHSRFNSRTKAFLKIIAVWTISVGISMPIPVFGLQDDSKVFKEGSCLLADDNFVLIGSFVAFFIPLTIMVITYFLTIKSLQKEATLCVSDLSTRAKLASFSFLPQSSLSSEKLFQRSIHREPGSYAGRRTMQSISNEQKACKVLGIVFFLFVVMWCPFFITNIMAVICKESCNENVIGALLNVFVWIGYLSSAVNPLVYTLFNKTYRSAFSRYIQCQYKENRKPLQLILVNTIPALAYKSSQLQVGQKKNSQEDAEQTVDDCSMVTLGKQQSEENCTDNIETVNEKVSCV

NCCc1c[nH]c2ccc(O)cc12 [Example 5-HT, 5-Hyroxytryptamine, reference compound]
Efficacy (Emax, %) [1, 6]: 101%

C[C@H](N)Cn1ncc2ccc3c(c21)C[C@@H](N)CO3.Cl.Cl.Cl [Example 6, (R)-1-((S)-2-Amino-propyl)-1,7,8,9-tetrahydro-pyrano[2,3-g]indazol-8-ylamine Trihydrochloride]
EC50 [1]: 175 nM | Emax [1, 6]: 87% | melting point: > 300 °C | IC50 [2]: 6.56 nM

C[C@H](N)Cc1n[nH]c2ccc3c(c12)CCCO3 (as salt: hydrochloride) [Example 17, (S)-1-Methyl-2-(3,7,8,9-tetrahydro-pyrano[3,2-e]indazol-1-yl)-ethylamine]
melting point: 235 to 240 °C

C[C@@H](N)Cn1ncc2ccc3c(c21)CC(O)CO3.Cl (stereo partly drawn)
melting point: 82 to 86 °C

C[C@H](N)Cn1ncc2ccc3c(c21)C[C@H](O)CO3 [Example 5, (S)-1-((S)-2-Aminopropyl)-1,7,8,9-tetrahydro-pyrano[2,3-g]indazol-8-ol]
EC50 [1]: 226 nM | Emax [1, 6]: 70% | Percent IOP Reduction ± SEM ([3]; 1 hour after dose, dose 300 μg): 7.9 ± 4.06% | Percent IOP Reduction ± SEM [3, 7]: 17.3 ± 3.87% | Percent IOP Reduction ± SEM [3, 8]: 25.1 ± 4.76% | IC50 [2]: 3.44 nM

C[C@H](N)Cc1n[nH]c2ccc3c(c12)CCCO3 [Example 17, (S)-1-Methyl-2-(3,7,8,9-tetrahydro-pyrano[3,2-e]indazol-1-yl)-ethylamine]
EC50 [1]: 154 nM | Emax [1, 6]: 88% | IC50 [2]: 0.79 nM

C[C@H](N)Cn1ncc2ccc3c(c21)C[C@@H](O)CO3 [Example 4, (R)-1-((S)-2-Aminopropyl)-1,7,8,9-tetrahydro-pyrano[2,3-g]indazol-8-ol]
EC50 [1]: 65.3 nM | Emax [1, 6]: 92% | melting point: 126 to 128 °C | Percent IOP Reduction ± SEM ([3]; 1 hour after dose, dose 300 μg): 7.68 ± 2.91% | Percent IOP Reduction ± SEM [3, 7]: 25.8 ± 3.53% | Percent IOP Reduction ± SEM [3, 8]: 30.2 ± 4.48% | IC50 [2]: 2.25 nM

C[C@H](N)Cn1ncc2ccc3c(c21)CC(O)CO3 (stereo partly drawn) [Example 3, 1-((S)-2-Aminopropyl)-1,7,8,9-tetrahydro-pyrano[2,3-g]indazol-8-ol]
EC50 [1]: 145 nM | Emax [1, 6]: 85% | melting point: 46 to 51 °C | IC50 [2]: 2.19 nM

C[C@H](N)Cn1ncc2ccc3c(c21)C=CCO3 [Example 9, (S)-1-Methyl-2-(7H-pyrano[2,3-g]indazol-1-yl)-ethylamine]
EC50 [1]: 41.4 nM | Emax [1, 6]: 91% | IC50 [2]: 0.274 nM

CC(=O)NCCO[C@H]1COc2ccc3cnn(C[C@H](C)N)c3c2C1 [Example 14, N-[2-[(R)-1-((S)-2-Aminopropyl)-1,7,8,9-tetrahydropyrano[2,3-g]indazol-8-yloxy]-ethyl]acetamide]
EC50 [1]: 202 nM | Emax [1, 6]: 86% | melting point: 165 to 166 °C | IC50 [2]: 5.34 nM

C[C@H](N)Cn1ncc2ccc3c(c21)[C@H](O)[C@H](O)CO3 (relative stereo) [Example 7, (8R*,9S*)-1-((S)-2-Amino-propyl)-1,7,8,9-tetrahydro-pyrano[2,3-g]indazole-8,9-diol]
EC50 [1]: 194 nM | Emax [1, 6]: 85% | melting point: 115 to 117 °C | IC50 [2]: 3.73 nM

COc1ccccc1N1CCN(CCCNc2c(C)c(=O)n(C)c(=O)n2C)CC1 [5-methylurapidil]
effect on IOP [4]: lowers IOP

COc1cc(C[C@@H](C)N)c(OC)cc1I [(R)-DOI, reference compound]
Percent IOP Reduction ± SEM ([3]; 1 hour after dose, dose 100 μg): 11.0 ± 4.98% | Percent IOP Reduction ± SEM ([3]; 3 hours after dose, dose 100 μg): 25.3 ± 2.97% | Percent IOP Reduction ± SEM ([3]; 6 hours after dose, dose 100 μg): 34.4 ± 4.98%

CCCN(CCC)C1CCc2cccc(O)c2C1 (stereo not drawn) [Example 8-OH-DPAT, 8-hydroxydipropylaminotetralin]
effect on IOP [5]: reduces IOP

C[C@H](N)Cn1ncc2ccc3c(c21)CCCO3.Cl.Cl [Example 8, (S)-2-(8,9-Dihydro-7H-pyrano[2,3-g]indazol-1-yl)-1-methyl-ethylamine Dihydrochloride]
EC50 [1]: 90 nM | Emax [1, 6]: 85% | melting point: 95 to 98 °C | IC50 [2]: 0.686 nM

C[C@H](N)Cn1ncc2ccc3c(c21)C(N)C(O)CO3 (stereo partly drawn)
melting point: 84 to 88 °C

CC(N)Cn1ncc2ccc3c(c21)CC(O)CO3 (stereo not drawn)
melting point: 124 to 125 °C

C[C@H](N)Cn1ncc2ccc3c(c21)C[C@@H](OCC(N)=O)CO3 [Example 15, 2-[(R)-1-((S)-2-Aminopropyl)-1,7,8,9-tetrahydro-pyrano[2,3-g]indazol-8-yloxy]-acetamide]
EC50 [1]: 178 nM | Emax [1, 6]: 95% | IC50 [2]: 2.87 nM

C[C@H](N)Cn1ncc2ccc3c(c21)C[C@@H](OCCO)CO3.Cl.Cl [Example 13, 2-[(R)-1-((S)-2-Aminopropyl)-1,7,8,9-tetrahydro-pyrano[2,3-g]indazol-8-yloxy]-ethanol Dihydrochloride]
EC50 [1]: 121 nM | Emax [1, 6]: 87% | melting point: > 100 °C | Percent IOP Reduction ± SEM ([3]; 1 hour after dose, dose 300 μg): 8.3 ± 2.64% | Percent IOP Reduction ± SEM [3, 7]: 21.4 ± 4.18% | Percent IOP Reduction ± SEM [3, 8]: 28.4 ± 3.36% | IC50 [2]: 3.38 nM

COC1c2c(ccc3cnn(C[C@H](C)N)c23)OCC1O (stereo partly drawn)
melting point: 105 to 108 °C

C[C@H](N)Cn1ncc2ccc3c(c21)C[C@@H](OCC(=O)OC(C)(C)C)CO3 [Example 16, [(R)-1-((S)-2-Amino-propyl)-1,7,8,9-tetrahydro-pyrano[2,3-g]indazol-8-yloxy]acetic Acid Tert-butyl Ester Dihydrochloride]
EC50 [1]: 424 nM | Emax [1, 6]: 73% | IC50 [2]: 1.94 nM
